PMC8070033, “Bimetallic Iron–Palladium Catalyst System as a Lewis-Acid for the Synthesis of Novel Pharmacophores Based Indole Scaffold as Anticancer Agents” (Molecules, 2021)
Values after ≈ are worked out from the molar mass of the structure shown.

Experiments:
[1] = tested on: Human fibroblast BJ; test: Cytotoxicity MTT assay, BJ human fibroblast cells; format: cell-based; settings: 48 hrs, ± SD from three independent experiments, NA: did not show activity at 30 µM
Description: (§1) Cytotoxicity against BJ Human fibroblast cells, and anti-cancer activity against PC3, HeLa and MCF-7 cancer cell lines were evaluated by following the procedure as described in the literature (Supplementary Materials).
The Biological Activity Assays Protocols […]
(§2) of positive control – mean of O.D of negative control)*100). […]
(§3) Standard drug used in the MTT assay was doxorubicin. […]
B. Cytotoxicity assay Protocol (BJ Human fibroblast cells) […]
standard MTT (3-[4, 5-dimethylthiazole-2-yl]-2, 5-diphenyl-tetrazolium bromide) colorimetric assay (Price & J. McMillan1, 1990). For this purpose, BJ Human fibroblast cells were cultured in Dulbecco’s Modified Eagle Medium, supplemented with 10% of fetal bovine serum (FBS), 100 IU/ml of penicillin and 100 µg/ml of streptomycin and 2 mM L‐glutamine in 75 cm2 flasks, and kept in 5% CO2 incubator at 37 °C (Mannerström, Toimela, Sarkanen & Heinonen, 2017).
Exponentially growing cells were harvested, counted with haemocytometer and diluted with a particular medium. Cell culture with the concentration of 6x10^4cells/ml was prepared and introduced (100 µL/well) into 96-well plates. After overnight incubation, medium was removed and 200 µL of fresh medium was added with different concentrations of compounds (1 -30µM). After 48 hrs, 200 µL MTT (0.5 mg/ml) was added to each well and incubated further for 3 hrs.
Subsequently, 100µL of DMSO was added to each well. The extent of MTT reduction to formazan within cells was calculated by measuring the absorbance at 550 nm, using a micro plate reader (Spectra Max plus, Molecular Devices, CA, USA). The cytotoxicity was recorded as concentra tion causing 50% growth inhibition (IC50) for BJ cells. The percent inhibition was calculated by using the following […]
Following concentrations were used to calculate (in case) of IC50: […]

[2] = tested on: PC3 cells (Prostate Cancer); test: PC3 cells (Prostate Cancer) MTT assay; format: cell-based; settings: for IC50: MTT assay, 48 hrs, ± SD from three independent experiments, NA: did not show anticancer activity at 30 µM
Description: as §1
The Biological Activity Assays Protocols
A. PC3 cells (Prostate Cancer) assay […]
For this purpose, PC3 cells (Prostate Cancer) were cultured in Dulbecco’s Modified Eagle Medium, supplemented with 5% of fetal bovine serum (FBS), 100 IU/ml of penicillin and 100 µg/ml of streptomycin in 75 cm2 flasks, and kept in 5% CO2 incubator at 37 °C. Exponentially growing cells were harvested, counted with haemocytometer and diluted with a particular medium. Cell culture with the concentration of 1x10^5 cells/ml was prepared and introduced (100 µL/well) into 96-well plates. After overnight incubation, medium was removed and 200 µL of fresh medium was added with different concentrations of compounds (1-30µM). After 48 hrs, 200 µL MTT (0.5 mg/ml) was added to each well and incubated further for 4 hrs. Subsequently, 100µL of DMSO was added to each well. The extent of MTT reduction to formazan within cells was calculated by measuring the absorbance at 570 nm, using a micro plate reader (Spectra Max plus, Molecular Devices, CA, USA). The cytotoxicity was recorded as concentration causing 50% growth inhibition (IC50) for PC3 cells. The percent inhibition was calculated by using the following formula: […]
(§4) of positive control – mean of O.D of negative control)*100).
(§5) The results (% inhibition) were processed by using Soft- Max Pro software (Molecular Device, USA).
Standard drug used in the MTT assay was doxorubicin.
(§6) 1. Mosmann T. Rapid colorimetric assay for cellular growth and survival: application to proliferation and cytotoxicity assays. J Immunol Meth 1983, 65, 55–63. […]

[3] = tested on: HeLa cells (Cervical Cancer); test: HeLa cells (Cervical Cancer) MTT assay; format: cell-based; settings: Homo sapiens, HeLa, 48 h, ± SD from three independent experiments, NA: did not show anticancer activity at 30 µM
Description: (§7) Cytotoxicity against BJ Human fibroblast cells, and anti-cancer activity against PC3, HeLa and MCF-7 cancer cell lines were evaluated by following the procedure as described in the literature (Supplementary Materials). […]
as §4, §5
(§8) Following concentrations were used to calculate (in case) of IC50:
as §3
C. HeLa cells (Cervical Cancer) assay
Cytotoxic activity of compounds was evaluated in 96-well flat-bottomed micro plates by using the standard MTT (3-[4, 5-dimethylthiazole-2-yl]-2, 5-diphenyl-tetrazolium bromide) colorimetric assay40.
For this purpose, HeLa cells (Cervical Cancer) were cultured in Minimum Essential Medium Eagle, supplemented with 5% of fetal bovine serum (FBS) , 100 IU/ml of penicillin and 100 µg/ml of streptomycin in 75 cm2 flasks, and kept in 5% CO2 incubator at 37 °C. Exponentially growing cells were harvested, counted with haemocytometer and diluted with a particular medium. Cell culture with the concentration of 6x10^4 cells/ml was prepared and introduced (100 µL/well) into 96 -well plates. After overnight incubation, medium was removed and 200 µL of fresh medium was added with different concentrations of compounds (1-30µM). After 48 hrs, 200 µL MTT (0.5 mg/ml) was added to each well and incubated further for 4 hrs. Subsequently, 100µL of DMSO was added to each well. The extent of MTT reduction to formazan within cells was calculated by measuring the absorbance at 570 nm, using a micro plate reader (Spectra Max plus, Molecular Devices, CA, USA). The cytotoxicity was recorded as concentration causing 50% growth inhibition (IC 50) for HeLa. The percent inhibition was calculated by using the following formula: […]
The results (% inhibition) were processed by using Soft - Max Pro software (Molecular Device, USA).
as §6

[4] = tested on: MCF-7 breast cancer cell line; test: MCF-7 breast cancer cell line MTT assay; format: cell-based; settings: for IC50: MTT assay, 48 hours, ± SD from three independent experiments, NA: did not show anticancer activity at 30 µM
Description: as §7, §2, §8, §3
D. MCF-7 breast cancer cell line assay.
MTT assay is a rapid and quantitative assay capable of measuring the surviving or proliferating cells.
It is based on the reduction of tetrazolium salt MTT (3-(4,5-dimethylthiazol-yl)-2,5-diphenyl tetrazolium bromide) by various dehydrogenase enzymes present in living cells. The tetrazolium ring present in MTT is cleaved in active mitochondria, which results in production of purple colored formazan crystals. These crystals are dissolved in DMSO and optical density of the color produced is taken by spectrophotometer (ELISA reader), with high efficiency and accuracy.
This assay was optimized and slightly modified according to our cell lines, i.e. MCF-7 breast cancer cell […]
1. MCF-7 cell line were cultured in Dulbecco’s modified Eagle medium (containing 10% fetal bovine serum) in 75 cc flasks, and kept in 5% CO 2 incubator at 37 °C.
2. Upon confluency, cells were harvested and plated in 96-well tissue culture treated flat bottom plates (seeding density 8,000 cells/well for MCF-7) in 100 µL medium.
3. Next day, compounds were added in triplicate at 50 µM concentration, and incubated for 48 hours. For natural extracts, the concentration was 50 µg/mL.
4. After 48 hrs incubation, the compounds were removed and 200 µL MTT at 0.5 mg/mL was added to each well and incubated at 37 °C for 3 hours.
5. Formazan crystals, formed by reduction of MTT were dissolved in 100 µL DMSO and absorbance was taken at 570 nm using micro-plate reader (Spectra Max plus, Molecular […]
6. The percent inhibition or decrease in viable cells was calculated by following formula:
% Inhibition = 100 - (mean of O.D. of test compound - mean of O.D. of negative control) / (mean of O.D. of positive control - mean of O.D. of negative control) x 100) […]
Twenty (20) mM stock concentration of compounds were diluted to working concentration of 50 µM, and then further serial dilutions were made in order to get less than 50% inhibition.
The IC50 was then calculated by using EZ-fit5 software.

[5] = tested on: P-388 cell lines; set-up: method as in PMID 8597898, doi:10.1016/j.tet.2007.05.127, doi:10.1021/jo00248a040; settings: cited from earlier work
[6] = tested on: MDAMB (human mammary); set-up: method as in PMID 8597898, doi:10.1016/j.tet.2007.05.127, doi:10.1021/jo00248a040; settings: cited from earlier work
[7] = tested on: HCT-8 (human colon); set-up: method as in PMID 8597898, doi:10.1016/j.tet.2007.05.127, doi:10.1021/jo00248a040; settings: cited from earlier work
[8] = tested on: A-549 (human lung); set-up: method as in PMID 8597898, doi:10.1016/j.tet.2007.05.127, doi:10.1021/jo00248a040; settings: cited from earlier work

Compound | IC50 ([2]; Homo sapiens, PC-3, 48 h) [µM] | IC50 [3] [µM] | IC50 ([4]; Homo sapiens, MCF7, 48 h) [µM] | IC50 [4] [µM] | melting point [°C] | IC50 [2] [µM] | IC50 [1] [µM] | anticancer activity against MCF-7 breast cancer cell line (in words) ([4]; in comparison to doxorubicin) | IC50, anti-tumor activity against P-388 cell lines [5] [µg/mL] | IC50 against MDAMB (human mammary) cancer cell line [6] [µg/mL] | IC50 against HCT-8 (human colon) cancer cell line [7] [µg/mL] | IC50 against A-549 (human lung) cancer cell line [8] [µg/mL] | anticancer activity against PC3 prostate cancer cell line (in words) ([2]; in comparison to doxorubicin)
COc1cccc(C(=O)CC(c2cc3ccccc3o2)c2c[nH]c3cc(F)ccc23)c1 (stereo not drawn) [Compound 3m, 3-(Benzofuran-2-yl)-3-(6-fluoro-1H-indol-3-yl)-1-(3-methoxyphenyl)propan-1-one] | 19.3 ± 0.1 | 15.2 ± 0.2 | 22.9 ± 0.43 | 22.9 ± 0.43 | 154 to 155 |  | > 50 |  |  |  |  |  | 
CN1CC(c2c[nH]c3c(Br)c(Br)cc(O)c23)NCC1c1c[nH]c2cc(Br)ccc12 (stereo not drawn) [dragmacidin] |  |  |  |  |  |  |  |  | 15 (≈ 25.7 µM) | 1 to 10 | 1 to 10 | 1 to 10 | 
O=C(CC(c1cc2ccccc2o1)c1c[nH]c2ccccc12)c1ccc(F)cc1 (stereo not drawn) [Compound 3b, 3-(Benzofuran-2-yl)-1-(4-fluorophenyl)-3-(1H-indol-3-yl)propan-1-one] | 22.2 ± 0.5 | 8.2 ± 0.2 | 12.3 ± 0.04 | 12.37 ± 0.04 | 157 to 158 |  | > 30 |  |  |  |  |  | 
COc1ccccc1C(=O)CC(c1cc2ccccc2o1)c1c[nH]c2ccc(Br)cc12 (stereo not drawn) [Compound 3s, 3-(Benzofuran-2-yl)-3-(5-bromo-1H-indol-3-yl)-1-(2-methoxyphenyl)propan-1-one] | 29.7 ± 0.5 | 18.4 ± 0.2 | 28.6 ± 0.33 |  | 60 to 61 |  |  |  |  |  |  |  | inactive
O=C(CC(c1cc2ccccc2o1)c1c[nH]c2ccc(Br)cc12)c1ccc(F)cc1 (stereo not drawn) [Compound 3c, 3-(Benzofuran-2-yl)-3-(5-bromo-1H-indol-3-yl)-1-(4-fluorophenyl)propan-1-one] | 21.9 ± 1.5 | 10.8 ± 0.1 | 25.9 ± 0.8 |  | 167 to 168 |  | > 30 |  |  |  |  |  | 

Continued by falling IC50 ([2]; Homo sapiens, PC-3, 48 h), values first:

IC50 ([2]; Homo sapiens, PC-3, 48 h) [µM] | IC50 [3] [µM] | IC50 ([4]; Homo sapiens, MCF7, 48 h) [µM] | IC50 [4] [µM] | melting point [°C] | IC50 [2] [µM] | Compound | IC50 [1] [µM] | anticancer activity against MCF-7 breast cancer cell line (in words) ([4]; in comparison to doxorubicin) | IC50, anti-tumor activity against P-388 cell lines [5] [µg/mL] | IC50 against MDAMB (human mammary) cancer cell line [6] [µg/mL] | IC50 against HCT-8 (human colon) cancer cell line [7] [µg/mL] | IC50 against A-549 (human lung) cancer cell line [8] [µg/mL] | anticancer activity against PC3 prostate cancer cell line (in words) ([2]; in comparison to doxorubicin)
16.3 ± 1.6 | 11.9 ± 0.2 | 19.3 ± 0.78 |  | 126 to 127 | 27 ± 0.4 | O=C(CC(c1cc2ccccc2o1)c1c[nH]c2ccccc12)c1ccc(Cl)cc1 (stereo not drawn) [Compound 3f, 3-(Benzofuran-2-yl)-1-(4-chlorophenyl)-3-(1H-indol-3-yl)propan-1-one] | > 30 |  |  |  |  |  | 
11.4 ± 0.2 | 22.5 ± 0.9 |  |  | 114 to 115 |  | O=C(CC(c1cc2ccccc2o1)c1c[nH]c2ccccc12)c1ccccc1 (stereo not drawn) [Compound 3a, 3-(Benzofuran-2-yl)-3-(1H-indol-3-yl)-1-phenylpropan-1-one] |  | inactive |  |  |  |  | 
